# According to the NIST ThermoML archive (doi:10.1021/je400423u):
# Numbers after ± are expanded uncertainties.
# How the values were obtained:
# [1] = 101 kPa, Liquid; for viscosity: Falling or rolling sphere viscometry; for mass density: Vibrating tube method
# [2] = xn = mol fraction of the nth substance listed; settings: 101 kPa, Liquid, x1 = 1; for viscosity: Falling or rolling sphere viscometry; for mass density: Vibrating tube method
SMILES,viscosity ([1]; 308.15 K) [mPa·s],mass density ([1]; 308.15 K) [kg/m3],viscosity ([1]; 313.15 K) [mPa·s],mass density ([1]; 313.15 K) [kg/m3],viscosity ([1]; 318.15 K) [mPa·s],mass density ([1]; 318.15 K) [kg/m3],viscosity ([1]; 323.15 K) [mPa·s],mass density ([1]; 323.15 K) [kg/m3],mass density ([1]; 328.15 K) [kg/m3],mass density ([1]; 333.15 K) [kg/m3],mass density ([1]; 338.15 K) [kg/m3],mass density ([1]; 343.15 K) [kg/m3],further results
CC(C)(C)O [2-methylpropan-2-ol],2.589 ± 0.02,770.36 ± 0.13,2.089 ± 0.016,765.07 ± 0.13,1.69 ± 0.013,759.67 ± 0.13,1.409 ± 0.011,754.19 ± 0.13,748.62 ± 0.13,742.95 ± 0.14,737.19 ± 0.14,731.31 ± 0.14,–
CC(C)CO [2-methyl-1-propanol],2.382 ± 0.019,790.12 ± 0.12,2.116 ± 0.017,786.12 ± 0.12,1.861 ± 0.015,782.06 ± 0.12,1.602 ± 0.013,777.93 ± 0.12,773.73 ± 0.12,769.44 ± 0.13,765.07 ± 0.13,760.61 ± 0.13,–
CCC(C)O (stereo not given) [butan-2-ol] + CC(C)CO,–,–,–,–,–,–,–,–,–,–,–,–,viscosity ([2]; 308.15 K): 2.128 ± 0.017 mPa·s; mass density ([2]; 308.15 K): 794.05 ± 0.14 kg/m3; viscosity ([2]; 313.15 K): 1.822 ± 0.015 mPa·s; mass density ([2]; 313.15 K): 789.65 ± 0.14 kg/m3; viscosity ([2]; 318.15 K): 1.533 ± 0.013 mPa·s; mass density ([2]; 318.15 K): 785.15 ± 0.14 kg/m3; viscosity ([2]; 323.15 K): 1.315 ± 0.011 mPa·s; mass density ([2]; 323.15 K): 780.55 ± 0.15 kg/m3; mass density ([2]; 328.15 K): 775.83 ± 0.15 kg/m3; viscosity ([2]; 333.15 K): 1.025 ± 0.0087 mPa·s; mass density ([2]; 333.15 K): 770.99 ± 0.15 kg/m3; mass density ([2]; 338.15 K): 766.03 ± 0.15 kg/m3; mass density ([2]; 343.15 K): 760.96 ± 0.15 kg/m3
CCC(C)O (stereo not given) [butan-2-ol],2.128 ± 0.017,794.05 ± 0.14,1.822 ± 0.015,789.65 ± 0.14,1.533 ± 0.013,785.15 ± 0.14,1.315 ± 0.011,780.55 ± 0.15,775.83 ± 0.15,770.99 ± 0.15,766.03 ± 0.15,760.96 ± 0.15,viscosity ([1]; 333.15 K): 1.025 ± 0.0087 mPa·s
